Experimental data as given in PubChem BioAssay (NCI).
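Assay format: 96-well plates, 48-hour exposure. At the TGI there is no net growth.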

Experiments:
Assay in all cases: growth of human tumour cells (NCI), 48 h
A498 renal = tested on: A498 renal
CCRF-CEM leukemia = tested on: CCRF-CEM leukemia
DLD-1 colon = tested on: DLD-1 colon
DMS 114 small cell lung = tested on: DMS 114 small cell lung
HT29 colon = tested on: HT29 colon
KM12 colon = tested on: KM12 colon
NCI-H460 lung = tested on: NCI-H460 lung
OVCAR-8 ovarian = tested on: OVCAR-8 ovarian
UACC-257 melanoma = tested on: UACC-257 melanoma
UO-31 renal = tested on: UO-31 renal

Measured: TGI

c1ccc(P(=Nc2ccccc2N=P(c2ccccc2)(c2ccccc2)c2ccccc2)(c2ccccc2)c2ccccc2)cc1
11 µM: NCI-H460 lung
12.5 µM: UACC-257 melanoma
12.2 µM: OVCAR-8 ovarian
2.68 µM: DMS 114 small cell lung
5.56 µM: A498 renal
11.6 µM: HT29 colon
12.8 µM: KM12 colon
6.35 µM: UO-31 renal
13 µM: CCRF-CEM leukemia | DLD-1 colon

CC1(C)OCC(C(O)C2OC(C)(C)OC2/C=N\O)O1 (stereo not given)
> 100 µM: all assays above

COCCOCOc1ccc(OCOCCOC)c2c1C(=O)c1ccccc1C2=O
> 88.9 µM: UACC-257 melanoma
37.3 µM: DMS 114 small cell lung
> 100 µM: all other assays above

COC(=O)C(C)(C)N=CN(C)C
> 100 µM: all assays above

COC(CN1C=C(Sc2ccccc2)CC1)OC
67.8 µM: KM12 colon
65.4 µM: DMS 114 small cell lung
62.8 µM: CCRF-CEM leukemia
54.2 µM: HT29 colon
98.1 µM: UACC-257 melanoma
86.9 µM: OVCAR-8 ovarian
> 100 µM: all other assays above

CCCCCCCCCCCCCP(=O)(O)NCC(N)=O
90.4 µM: UO-31 renal
> 100 µM: all other assays above

CCCCCCN(N)C(=O)CC#N
> 100 µM: all assays above

CC(C)c1c2[nH]c3ccccc3c2c(C(C)C)c2[nH]c3ccccc3c12
> 100 µM: all assays above

CNS(=O)(=O)NNS(=O)(=O)c1ccc(Cl)cc1
> 100 µM: all assays above
